According to publication PMC2994747, “Molecular Characterization of c-Abl/c-Src Kinase Inhibitors Targeted against Murine Tumour Progenitor Cells that Express Stem Cell Markers” (PLoS ONE, 2010):
Where two headings read alike, the source gives them in different places.

Legend:
A2C12 [1] = experiment: MTS cell viability assay; assay type: cell-based, mouse
Experimental: (§1) Three human and eleven murine cancer cell lines were used. The human NSCLC cell line A549 (ACC 107) and the human colorectal carcinoma cell line CaCo2 (ACC 169) were obtained from Deutsche Sammlung von Mikroorganismen und Zellkulturen (DSMZ, Braunschweig, Germany). The human hepatocellular carcinoma cell line HepG2 (HB-8065) was obtained from American Type Culture Collection (Manassas, VA, USA). The 11 murine NSCLC cell lines were established as described recently. Cells were grown in monolayer cultures in DMEM containing 10% foetal calf serum, 4 mmol/l L-glutamine and 2% Penicillin/Streptomycin at 37°C in a humidified atmosphere of 95% air and 5% CO2.
(§2) Cell culture viability was monitored by CellTiter96® AQueous One Solution Cell Proliferation Assay (Promega GmbH, Mannheim, Germany). The cells were seeded in triplicates in 96-well microtitre plates and treated with the dual kinase inhibitors or vehicle (0.2% DMSO). After 24 h or 96 h of treatment the MTS tetrazolium reagent was added to the cells and incubated for 1 h. Absorbance at 490 nm was assayed with a Victor3 Wallac 1420 Multilabel counter (PerkinElmer, Waltham, MA, USA).

BetaD5 [2] = experiment: MTS cell viability assay; assay type: cell-based, mouse
Experimental: as §1, §2

GammaA3 [3] = experiment: MTS cell viability assay; assay type: cell-based, mouse
Experimental: as §1, §2

GammaD12 [4] = experiment: MTS cell viability assay; assay type: cell-based, mouse; conditions: MTS
Experimental: as §1, §2

A549 [5] = experiment: MTS cell viability assay; assay type: cell-based, human
Experimental: as §1, §2

CaCo2 [6] = experiment: MTS cell viability assay; assay type: cell-based, human
Experimental: as §1, §2

HepG2 [7] = experiment: MTS cell viability assay; assay type: cell-based, human
Experimental: as §1, §2

A2C12 [8] = experiment: Cell cycle analysis by flow cytometry; assay type: cell-based, mouse; conditions: IC50 concentration, 96 h
Experimental: (§3) CycleTEST™ PLUS DNA Reagent Kit (Becton Dickinson GmbH, Heidelberg, Germany) for cell cycle analysis was used, according to the instructions of the manufacturer. Briefly, the cells were harvested with trypsin, washed with PBS, and resuspended in CycleTEST Buffer. The cells were centrifuged and resuspended in solution A. After incubation for 10 min at room temperature, solution B was added and incubated. After adding solution C, the samples were incubated at 4°C protected from light. The samples were stored on ice and protected from light until analysis by FACScan flow cytometer (Becton Dickinson GmbH, Heidelberg, Germany).

BetaD5 [9] = experiment: Cell cycle analysis by flow cytometry; assay type: cell-based, mouse; conditions: IC50 concentration, 96 h
Experimental: as §3

GammaA3 [10] = experiment: Cell cycle analysis by flow cytometry; assay type: cell-based, mouse; conditions: IC50 concentration, 96 h
Experimental: as §3

GammaD12 [11] = experiment: Cell cycle analysis by flow cytometry; assay type: cell-based, mouse; conditions: IC50 concentration, 96 h
Experimental: as §3

A549 [12] = experiment: Cell cycle analysis by flow cytometry; assay type: cell-based, human; conditions: IC50 concentration, 96 h
Experimental: as §3

CaCo2 [13] = experiment: Cell cycle analysis by flow cytometry; assay type: cell-based, human; conditions: IC50 concentration, 96 h
Experimental: as §3

HepG2 [14] = experiment: Cell cycle analysis by flow cytometry; assay type: cell-based, human; conditions: IC50 concentration, 96 h
Experimental: as §3

c-Abl = target: T1, c-Abl (Homo sapiens, UniProt P00519); experiment: Abl filter-binding kinase assay (Abtide, [γ-32P]ATP); assay type: biochemical; conditions: isolated Abl; calculated from ID50, ATP-competitive; E0 0.005, S0 0.012 µM
T1 construct: His tag; purchased Upstate (Lake Placid, NY, USA)
T1 sequence (P00519 whole entry): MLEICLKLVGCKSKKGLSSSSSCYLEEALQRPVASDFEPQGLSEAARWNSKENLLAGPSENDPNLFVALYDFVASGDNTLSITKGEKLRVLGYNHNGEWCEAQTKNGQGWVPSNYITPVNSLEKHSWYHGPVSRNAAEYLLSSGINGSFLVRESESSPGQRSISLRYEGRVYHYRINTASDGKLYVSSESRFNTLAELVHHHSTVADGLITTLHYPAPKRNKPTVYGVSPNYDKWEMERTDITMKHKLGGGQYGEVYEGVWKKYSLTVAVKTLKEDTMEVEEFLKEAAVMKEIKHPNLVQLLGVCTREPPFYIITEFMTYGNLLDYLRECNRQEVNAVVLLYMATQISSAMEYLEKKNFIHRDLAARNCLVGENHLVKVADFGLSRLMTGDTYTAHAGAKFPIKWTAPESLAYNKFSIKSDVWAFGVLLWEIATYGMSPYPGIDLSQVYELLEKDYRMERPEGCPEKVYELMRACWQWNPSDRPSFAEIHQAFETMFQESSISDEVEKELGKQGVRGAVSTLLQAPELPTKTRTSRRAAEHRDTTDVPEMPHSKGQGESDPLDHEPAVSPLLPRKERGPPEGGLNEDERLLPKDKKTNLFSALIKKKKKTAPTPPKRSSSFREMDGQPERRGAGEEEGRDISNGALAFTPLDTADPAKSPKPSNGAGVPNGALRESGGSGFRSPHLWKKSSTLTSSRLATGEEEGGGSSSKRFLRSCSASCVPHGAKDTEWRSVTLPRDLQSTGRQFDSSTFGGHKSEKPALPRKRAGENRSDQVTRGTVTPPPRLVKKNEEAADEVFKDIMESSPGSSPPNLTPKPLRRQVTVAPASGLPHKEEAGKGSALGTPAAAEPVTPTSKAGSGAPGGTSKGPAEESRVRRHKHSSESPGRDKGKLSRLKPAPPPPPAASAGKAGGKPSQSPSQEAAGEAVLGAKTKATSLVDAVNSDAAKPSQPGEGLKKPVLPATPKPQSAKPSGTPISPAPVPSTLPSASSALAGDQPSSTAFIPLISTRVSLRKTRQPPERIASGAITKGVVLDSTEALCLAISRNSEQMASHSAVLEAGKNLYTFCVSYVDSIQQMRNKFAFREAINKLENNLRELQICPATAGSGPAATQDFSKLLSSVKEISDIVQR
Experimental: (§4) Baculovirus-produced recombinant purified his-tagged active against human Src and Abl were purchased from Upstate (Lake Placid, NY, USA).
(§5) Src activity was measured in a filter-binding assay using the Src Assay Kit (Upstate, Lake Placid, NY, USA), according to the manufacturer's protocol, using the specific Src peptide substrate [[…]] in the presence of 0.125 pmol of Src and 0.160 pmol of [γ-^32P]ATP. Abl activity was measured in a filter-binding assay using an Abl specific peptide substrate (Abtide, Upstate). Reaction conditions were (in a final volume of 10 µl): 25 mM Tris-HCl pH 7.5, 1 mM DTT, 0.012 µM [γ-^32P]ATP, 0.022 µM c-Abl. Reactions were incubated 10 min at 30°C.The samples (9 µl) were spotted on paper cellulose filters which were washed according to the manufacturer's protocol. Filter-bound radioactivity was measured by liquid scintillation with a Microbeta-Trilux apparatus (PerkinElmer, Waltham, MA, USA).
(§6) The ID50 were converted to Ki according to a competitive mechanism with respect to the substrate ATP. […] Since (i) the ATP concentration was limiting, i.e., [ATP], Km(ATP), and (ii) the enzyme concentration was not negligible with respect to the ATP concentration, the classical Cheng-Prusoff relationship was not applicable. Consequently, Ki values were calculated according to [drawing 3] (2) where S0 is the concentration of the competing substrate (ATP) and E0 is the concentration of the enzyme. Each experiment was done in triplicate and mean values were used for the interpolation. Curve fitting was performed with the program GraphPad Prism.

c-Src = target: T2, c-Src (Homo sapiens, UniProt P12931); experiment: Src filter-binding kinase assay (Src Assay Kit); assay type: biochemical; conditions: isolated Src; calculated from ID50, ATP-competitive; E0 0.005, S0 0.012 µM
T2 construct: His tag; purchased Upstate (Lake Placid, NY, USA)
T2 sequence (P12931 whole entry): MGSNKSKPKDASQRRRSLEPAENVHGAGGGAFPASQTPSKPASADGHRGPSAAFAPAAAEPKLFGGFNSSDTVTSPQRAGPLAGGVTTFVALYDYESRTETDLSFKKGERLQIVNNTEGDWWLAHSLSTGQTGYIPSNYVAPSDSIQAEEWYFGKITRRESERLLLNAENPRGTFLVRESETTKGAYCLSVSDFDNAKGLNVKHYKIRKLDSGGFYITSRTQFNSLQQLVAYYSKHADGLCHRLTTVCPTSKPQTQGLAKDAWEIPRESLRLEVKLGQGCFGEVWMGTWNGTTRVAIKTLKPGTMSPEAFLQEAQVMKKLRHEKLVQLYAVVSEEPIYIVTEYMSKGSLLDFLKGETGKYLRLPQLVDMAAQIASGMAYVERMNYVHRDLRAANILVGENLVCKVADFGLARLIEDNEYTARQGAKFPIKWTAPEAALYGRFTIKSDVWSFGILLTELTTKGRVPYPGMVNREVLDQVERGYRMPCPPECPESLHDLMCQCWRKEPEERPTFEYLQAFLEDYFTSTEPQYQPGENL
Experimental: as §4, §5, §6

[15] = 24 h, read-out: Calculated IC50 after single treatment for 24 h
[16] = 96 h, read-out: Calculated IC50 after daily treatment for 96 h
[17] = Mus musculus, 24 h, read-out: Calculated IC50 after single treatment for 24 h
[18] = Mus musculus, 96 h, read-out: Calculated IC50 after daily treatment for 96 h

## CSc1nc(NCCc2ccccc2)c2cnn(CC(Cl)c3ccc(F)cc3)c2n1 (centres unmarked) [Si66]
A2C12 [1]; [15]
  IC50: 23.7 ± 2.2 µM
A2C12 [1]; [16]
  IC50: 6.9 ± 0.4 µM
BetaD5 [2]; [15]
  IC50: 20.7 ± 0.4 µM
BetaD5 [2]; [16]
  IC50: 10.3 ± 0.3 µM
GammaA3 [3]; [15]
  IC50: 23.7 ± 2 µM
GammaA3 [3]; [16]
  IC50: 9.1 ± 0.2 µM
GammaD12 [4]; [15]
  IC50: 14.2 ± 1.7 µM
GammaD12 [4]; [16]
  IC50: 4.8 ± 0.4 µM
A549 [5]; [15]
  IC50: 21.6 ± 2.6 µM
A549 [5]; [16]
  IC50: 7.1 ± 0.1 µM
CaCo2 [6]; [15]
  IC50: 44.7 ± 5.9 µM
CaCo2 [6]; [16]
  IC50: 6 ± 0.1 µM
HepG2 [7]; [15]
  IC50: 44.7 ± 5.9 µM
HepG2 [7]; [16]
  IC50: 8.2 ± 0.6 µM
A2C12 [8]
  Cells in G1 phase: 65.3%
  Cells in G2 phase: 11.8%
  Cells in S phase: 22.9%
BetaD5 [9]
  Cells in G1 phase: 52.7%
  Cells in G2 phase: 25.6%
  Cells in S phase: 21.7%
GammaA3 [10]
  Cells in G1 phase: 58.4%
  Cells in G2 phase: 18.5%
  Cells in S phase: 23.1%
GammaD12 [11]
  Cells in G1 phase: 32.1%
  Cells in G2 phase: 6.7%
  Cells in S phase: 61.5%
A549 [12]
  Cells in G1 phase: 68.6%
  Cells in G2 phase: 5.3%
  Cells in S phase: 26.1%
CaCo2 [13]
  Cells in G1 phase: 61%
  Cells in G2 phase: 5.8%
  Cells in S phase: 33.3%
HepG2 [14]
  Cells in G1 phase: 61.1%
  Cells in G2 phase: 9.2%
  Cells in S phase: 29.8%

## BrC(Cn1ncc2c(N3CCOCC3)ncnc21)c1ccccc1 (centres unmarked) [Si51]
c-Abl
  Ki: 0.22 µM
A2C12 [1]; [15]
  IC50: > 100 µM
A2C12 [1]; [16]
  IC50: > 20 µM
BetaD5 [2]; [15]
  IC50: > 100 µM
BetaD5 [2]; [16]
  IC50: > 20 µM
GammaA3 [3]; [15]
  IC50: > 100 µM
GammaA3 [3]; [16]
  IC50: > 20 µM
GammaD12 [4]; [15]
  IC50: > 100 µM
GammaD12 [4]; [16]
  IC50: > 20 µM
A549 [5]; [15]
  IC50: > 100 µM
A549 [5]; [16]
  IC50: > 20 µM
CaCo2 [6]; [15]
  IC50: > 100 µM
CaCo2 [6]; [16]
  IC50: > 20 µM
HepG2 [7]; [15]
  IC50: > 100 µM

## Cc1nc(Nc2cccc(Cl)c2)c2cnn(CC(Cl)c3ccccc3)c2n1 (centres unmarked) [Si167]
c-Abl
  Ki: 0.5 µM
c-Src
  Ki: 0.362 µM
A2C12 [1]; [17]
  IC50: 16.4 ± 0.8 µM
A2C12 [1]; [18]
  IC50: 10.6 ± 0.9 µM
BetaD5 [2]; [17]
  IC50: 12.4 ± 1 µM
BetaD5 [2]; [18]
  IC50: 9.3 ± 0.6 µM
GammaA3 [3]; [17]
  IC50: 20.5 ± 1.2 µM
GammaA3 [3]; [18]
  IC50: 16.8 ± 3.2 µM
GammaD12 [4]; [17]
  IC50: 19.5 ± 0.8 µM
GammaD12 [4]; [18]
  IC50: 9 ± 0.9 µM
A549 [5]; Homo sapiens, A549, 24 h, 24 h, read-out: Calculated IC50 after single treatment for 24 h
  IC50: 19.8 ± 2.8 µM
A549 [5]; Homo sapiens, A549, 96 h, 96 h, read-out: Calculated IC50 after daily treatment for 96 h
  IC50: 5.7 ± 0.3 µM
CaCo2 [6]; Homo sapiens, Caco-2, 24 h, read-out: Calculated IC50 after single treatment for 24 h
  IC50: 32.2 ± 1.7 µM
CaCo2 [6]; Homo sapiens, Caco-2, 96 h, read-out: Calculated IC50 after daily treatment for 96 h
  IC50: 5.7 ± 0.6 µM
HepG2 [7]; Homo sapiens, 24 h, read-out: Calculated IC50 after single treatment for 24 h
  IC50: 32.2 ± 1.7 µM
HepG2 [7]; Homo sapiens, 96 h, read-out: Calculated IC50 after daily treatment for 96 h
  IC50: 11.4 ± 1.7 µM
A2C12 [8]
  Cells in G1 phase: 55.7%
  Cells in G2 phase: 13.1%
  Cells in S phase: 31.2%
BetaD5 [9]
  Cells in G1 phase: 74.7%
  Cells in G2 phase: 18.7%
  Cells in S phase: 6.6%
GammaA3 [10]
  Cells in G1 phase: 73.2%
  Cells in G2 phase: 15.1%
  Cells in S phase: 11.7%
GammaD12 [11]
  Cells in G1 phase: 42%
  Cells in G2 phase: 9.4%
  Cells in S phase: 48.6%
A549 [12]
  Cells in G1 phase: 61.5%
  Cells in G2 phase: 6.7%
  Cells in S phase: 31.8%
CaCo2 [13]
  Cells in G1 phase: 52.7%
  Cells in G2 phase: 18%
  Cells in S phase: 29.3%
HepG2 [14]
  Cells in G1 phase: 57.8%
  Cells in G2 phase: 10.6%
  Cells in S phase: 31.6%
